Publication PMC8828861 (Communications Biology, 2022)

Key:
[1] = target: M. tuberculosis Rho (MtbRho) (Mycobacterium tuberculosis, UniProt P9WHF3); format: binding
SEC-MALS = target: the molecule itself; test: SEC-MALS

M. tuberculosis Rho (MtbRho), sequence (P9WHF3 whole entry): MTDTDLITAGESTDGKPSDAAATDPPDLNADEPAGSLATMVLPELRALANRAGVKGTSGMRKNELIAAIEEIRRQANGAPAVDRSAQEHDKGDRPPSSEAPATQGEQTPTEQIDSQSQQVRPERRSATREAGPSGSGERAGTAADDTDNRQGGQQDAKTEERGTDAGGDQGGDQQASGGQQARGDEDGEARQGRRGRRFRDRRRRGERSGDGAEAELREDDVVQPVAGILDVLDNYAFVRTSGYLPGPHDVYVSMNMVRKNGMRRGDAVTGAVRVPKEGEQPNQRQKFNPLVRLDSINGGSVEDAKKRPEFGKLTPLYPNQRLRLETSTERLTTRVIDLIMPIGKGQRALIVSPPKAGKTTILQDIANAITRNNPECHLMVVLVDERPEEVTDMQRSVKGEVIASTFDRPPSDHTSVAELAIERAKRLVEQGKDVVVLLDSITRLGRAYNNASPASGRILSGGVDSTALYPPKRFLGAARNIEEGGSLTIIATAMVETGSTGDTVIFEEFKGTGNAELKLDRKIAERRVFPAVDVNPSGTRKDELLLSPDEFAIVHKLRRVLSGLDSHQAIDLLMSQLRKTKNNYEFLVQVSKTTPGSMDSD

Molecule | cryo-EM structure, 3.3 Å, 6 ATP per hexamer [1] | stoichiometry N (SEC-MALS)
Nc1ncnc2c1ncn2[C@@H]1O[C@H](COP(=O)(O)OP(=O)(O)OP(=O)(O)O)[C@@H](O)[C@H]1O [ATP] | clear electron density in all the ATPase pockets of MtbRho reveals that ATP ligands are held by a network | –
Mycobacterium tuberculosis transcription termination factor Rho (enzyme, also called MtbRho; WT MtbRho) TDTDLITAGESTDGKPSDAAATDPPDLNADEPAGSLATMVLPELRALANRAGVKGTSGMRKNELIAAIEEIRRQANGAPAVDRSAQEHDKGDRPPSSEAPATQGEQTPTEQIDSQSQQVRPERRSATREAGPSGSGERAGTAADDTDNRQGGQQDAKTEERGTDAGGDQGGDQQASGGQQARGDEDGEARQGRRGRRFRDRRRRGERSGDGAEAELREDDVVQPVAGILDVLDNYAFVRTSGYLPGPHDVYVSMNMVRKNGMRRGDAVTGAVRVPKEGEQPNQRQKFNPLVRLDSINGGSVEDAKKRPEFGKLTPLYPNQRLRLETSTERLTTRVIDLIMPIGKGQRALIVSPPKAGKTTILQDIANAITRNNPECHLMVVLVDERPEEVTDMQRSVKGEVIASTFDRPPSDHTSVAELAIERAKRLVEQGKDVVVLLDSITRLGRAYNNASPASGRILSGGVDSTALYPPKRFLGAARNIEEGGSLTIIATAMVETGSTGDTVIFEEFKGTGNAELKLDRKIAERRVFPAVDVNPSGTRKDELLLSPDEFAIVHKLRRVLSGLDSHQAIDLLMSQLRKTKNNYEFLVQVSKTTPGSMDSD | – | 6
